Results on ten molecules are retold here after ChEMBL document CHEMBL1201862, “PubChem BioAssay data set” (2004).

SMILES strings stand for the structures.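 Dose response: 5 concentrations. Exposure: 48 h. Format: 96-well plates. Endpoint: linear interpolation; highest concentration if not reached. GI50: concentration for 50% inhibition of growth.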 Calls of active or inactive are those of the source. Rule as the data show it: active = GI50 up to about 1.1 µM and inactive = higher.

Common to all, as to test: NCI anticancer screen, dose series, 48 h
In test [1] the test system is A549.
Test [2] has as its system ACHN.
Test [3] deals with HCC 2998.
Test [4] deals with K562.
The test system of test [5] is KM12.
Test [6] concerns MOLT-4.
The subject of test [7] is NCI-H460.
For test [8], the system named is NCI-H522.
Test [9] has as its system OVCAR-4.
Test [10] relates to RPMI-8226.
For test [11], the system named is SF-268.
Test [12] relates to SK-MEL-28.
In test [13] the test system is SK-MEL-5.
Test [14] relates to SK-OV-3.
Test [15] deals with SNB-19.
Test [16] concerns T47D.
In test [17] the test system is TK-10.
Test [18] relates to UACC-257.
Test [19] has as its system UACC-62.
Test [20] has as its system UO-31.

In the case of `O=C(O)c1cc2ccccc2c(/N=N/c2ccc(S(=O)(=O)O)cc2)c1O`, the GI50 in test [1], in test [2], in test [3], in test [4], in test [5] and in [6] was > 100 µM (inactive) each time. Also, the GI50 in test [7], in test [8], in [9], in test [10], in test [11] and in test [12] was > 100 µM (inactive) throughout. Also, the GI50 was > 100 µM (inactive) in [13]; > 100 µM (inactive) in test [14]; 0.0264 µM (active) in test [15]; > 100 µM (inactive) in test [16]; > 100 µM (inactive) in test [17]; > 100 µM (inactive) in test [18]. Further, the GI50 was > 100 µM (inactive) in [19] and 60.3 µM (inactive) in test [20].

Regarding `COC(=O)c1ccc(NC(=O)c2cc3c(cc2Br)OCO3)o1`, the GI50 in test [1] is > 100 µM (inactive); in test [2], > 100 µM (inactive); in [3], > 100 µM (inactive); in test [4], 63.2 µM (inactive); in [5], > 100 µM (inactive); in test [6], 95.7 µM (inactive). In addition, the GI50 in [8] is 15.7 µM (inactive); in test [9], > 100 µM (inactive); in test [10] it was > 100 µM (inactive); in [11], 0.471 µM (active); in test [12], > 100 µM (inactive); in test [13], > 100 µM (inactive). The GI50 in test [14] is > 100 µM (inactive); in test [15], > 100 µM (inactive); in test [16], 90.6 µM (inactive); in [17], > 100 µM (inactive); in test [18], > 100 µM (inactive); in test [19] it was > 100 µM (inactive). Further, in [20], the GI50 was > 100 µM (inactive).

With `CSC1=C(C#N)C(=S)N=C(N)C1C(=O)Nc1ccc(C)cc1` (stereo not given), the GI50 in test [1], in [3], in test [4], in test [5], in test [6] and in test [7] was > 100 µM (inactive) throughout. Besides, the GI50 was 32 µM (inactive) in [8]; > 100 µM (inactive) in test [9]; > 100 µM (inactive) in test [10]; > 100 µM (inactive) in test [11]; > 100 µM (inactive) in [12]; > 100 µM (inactive) in test [13]. Also, the GI50 in test [14], in test [15], in [16], in [17], in [18] and in test [19] was > 100 µM (inactive) each time. Moreover, in [20], the GI50 is 64 µM (inactive).

Take `Cc1nc(Cl)c(C)c(Cl)n1`: the GI50 in [1] is > 100 µM (inactive); in test [2] it was > 100 µM (inactive); in [3] it was 99.1 µM (inactive); in test [4], 18.3 µM (inactive); in test [5], > 59.6 µM (inactive); in test [6] it was 6.17 µM (inactive). Moreover, the GI50 was > 100 µM (inactive) in [7]; < 0.01 µM (active) in test [8]; 52.7 µM (inactive) in test [9]; > 100 µM (inactive) in test [10]; > 100 µM (inactive) in test [11]; > 93.3 µM (inactive) in [12]. Moreover, the GI50 was > 59 µM (inactive) in test [13]; > 100 µM (inactive) in test [14]; > 100 µM (inactive) in test [15]; > 100 µM (inactive) in [16]; > 100 µM (inactive) in [17]; > 100 µM (inactive) in [18]. The GI50 in [19] was > 80.4 µM (inactive).

Regarding `O=[N+]([O-])/C(C(Cl)=C(Cl)Cl)=C(/Br)SCc1ccccc1`, the GI50 was 5.85 µM (inactive) in test [1]; 2.64 µM (inactive) in test [2]; 7.21 µM (inactive) in test [3]; 0.467 µM (active) in [4]; 13.4 µM (inactive) in test [5]; 0.26 µM (active) in [6]. In addition, the GI50 in test [7] is 7.13 µM (inactive); in test [8] it was 1.71 µM (inactive); in [9], 3.3 µM (inactive); in test [10] it was 0.656 µM (active); in [11], 2.52 µM (inactive); in test [12] it was 1.89 µM (inactive). For the same molecule, the GI50 is 2.96 µM (inactive) in test [13]; 22 µM (inactive) in [14]; 10.4 µM (inactive) in test [15]; 2.88 µM (inactive) in test [16]; 3.08 µM (inactive) in test [17]; 3.18 µM (inactive) in [18]. In addition, the GI50 in test [19] is 3.42 µM (inactive); in test [20], 2.45 µM (inactive).

For `O=C1/C(=C\c2cccc(Oc3ccccc3)c2)S(=O)(=O)C(c2ccccc2)N1c1ccccc1Cl` (stereo not given), the GI50 in [1] was 31.6 µM (inactive); in test [2], 27.8 µM (inactive); in test [3], 49.3 µM (inactive); in test [4], 14.5 µM (inactive); in test [5] it was 27 µM (inactive); in test [6], 15.1 µM (inactive). The GI50 in test [7] is 32.6 µM (inactive); in [8] it was 18.4 µM (inactive); in [9], 15.4 µM (inactive); in [10] it was 16.3 µM (inactive); in test [12], 38.9 µM (inactive); in test [13] it was 17.4 µM (inactive). Further, the GI50 was 34.2 µM (inactive) in test [14]; 16.1 µM (inactive) in test [15]; 16.3 µM (inactive) in test [16]; 77.1 µM (inactive) in test [17]; 28.6 µM (inactive) in test [18]; 25.2 µM (inactive) in test [19]. In addition, in test [20], the GI50 was 19.7 µM (inactive).

On to `Nn1c(CCCCCCCCc2nnc(COc3ccccc3)n2N)nnc1COc1ccccc1`, for which the GI50 in test [1], in test [2], in [3], in [4], in [5] and in test [6] was > 100 µM (inactive) throughout. For the same molecule, the GI50 in [7], in [8], in test [9], in [10], in test [11] and in test [12] was > 100 µM (inactive) in each case. Besides, the GI50 in test [13], in test [14], in test [15], in test [16], in [17] and in test [18] was > 100 µM (inactive) each time. The GI50 in [19] and in test [20] was > 100 µM (inactive) throughout.

Consider `CCCCNCCCNCCCNC(=O)c1csc(-c2csc(CCNC(=O)C(NC(=O)C(C)C(O)C(C)NC(=O)C(NC(=O)c3nc(C(CC(N)=O)NCC(N)C(N)=O)nc(N)c3C)C(OC3OC(CO)C(O)C(O)C3OC3OC(CO)C(O)C(OC(N)=O)C3O)c3c[nH]cn3)C(C)O)n2)n1` (stereo not given), for which the GI50 was 0.386 µM (active) in [1]; < 0.0187 µM (active) in [2]; 43.7 µM (inactive) in test [3]; 10.1 µM (inactive) in [4]; 8.67 µM (inactive) in [5]; 2.07 µM (inactive) in [6]. Also, the GI50 in test [7] is 0.0264 µM (active); in test [8], 0.791 µM (active); in [9] it was 5.75 µM (inactive); in [10], > 50 µM (inactive); in test [11], 0.253 µM (active); in test [12], 13.6 µM (inactive). Further, the GI50 in test [13] was 0.247 µM (active); in test [14] it was 4.06 µM (inactive); in [15], 6.89 µM (inactive); in test [16], 12.9 µM (inactive); in test [17], 17.3 µM (inactive); in [18] it was 14.3 µM (inactive). Moreover, the results for the GI50 in test [19] and in test [20] were 0.362 µM (active) and 0.372 µM (active), respectively.

Regarding `C/C(Nc1ccc(Cl)cc1)=C1/CCOC1=O`, the GI50 was 4.89 µM (inactive) in [1]; 13.7 µM (inactive) in test [2]; 5.68 µM (inactive) in [3]; 0.346 µM (active) in [4]; 0.618 µM (active) in test [5]; 1.93 µM (inactive) in test [6]. Also, the GI50 is > 31.4 µM (inactive) in test [7]; > 70 µM (inactive) in [8]; > 100 µM (inactive) in test [9]; 1.27 µM (inactive) in test [10]; > 100 µM (inactive) in test [11]; > 100 µM (inactive) in [12]. In addition, the GI50 in test [13] was 1.13 µM (inactive); in test [14] it was 59.2 µM (inactive); in [15] it was > 100 µM (inactive); in test [16], 4.91 µM (inactive); in test [17] it was 46.8 µM (inactive); in test [18] it was 46.5 µM (inactive). For the same molecule, the GI50 in test [19] is 0.168 µM (active); in [20] it was 2.81 µM (inactive).

Turning to `CC1=C[C@@H](C)C[C@]2(C)CC[C@H](O2)[C@]23CC[C@](CO)(C[C@H](O2)[C@@H]2O[C@@](C)(CC2=O)[C@@H](O)[C@H]2CC[C@@]4(CCC[C@@H](O4)[C@H](C)C(=O)O[C@H]4C[C@H]([C@]5(O)OCC[C@H](C)[C@@H]5O)O[C@H]4C=C1)O2)O3`, the GI50 in test [1] is 0.0294 µM (active); in [2], 0.0249 µM (active); in [3] it was 0.0906 µM (active); in test [4], 0.0183 µM (active); in test [5], 0.757 µM (active); in test [7] it was 0.0333 µM (active). The GI50 in [8] is 0.116 µM (active); in test [9] it was 0.0179 µM (active); in test [10] it was > 10 µM (inactive); in test [11], 0.00279 µM (active); in test [12], 0.0124 µM (active); in test [13], 0.0142 µM (active). The GI50 was 0.0177 µM (active) in test [14]; 0.0197 µM (active) in [15]; 0.427 µM (active) in [16]; 0.0179 µM (active) in test [17]; 0.142 µM (active) in test [18]; 0.00325 µM (active) in [19]. Also, in test [20], the GI50 is 0.0435 µM (active).
